Measurements: patent publication US8541617B2, “Cycloalkylphenyl substituted cyclic ketoenols” (Bayer Cropscience AG, priority 2006, dated 2013)

Tests used:
Summer wheat = experiment: Example C: Herbicidal post-emergence action, use of safeners (crop plant damage); format: in vivo; conditions: for Summer wheat observed (%): 28 days after application, no safener; for Summer wheat observed (%), 10 days after application: greenhouse container trial
Experimental: (§1) Herbicidal Post-Emergence Action
(§2) Seeds of monocotylos and dicotylos weed and crop plants are placed into sandy lawn in wood fibre pots or in plastic pots, covered with soil and cultivated in a greenhouse, during the vegetation period also outdoors outside of the greenhouse, under good growth conditions. Two to three weeks after sowing, the test plants are treated at the one- to three-leaf stage. The test compounds, formulated as wettable powders (WP) or liquid (EC), are, in the various dosages at a water application rate of 300 l/ha (converted), with wetting agent (0.2 to 0.3%) added, sprayed onto the plants and the surface of the soil. […]
(§3) If it is additionally to be tested as to whether safeners can improve the plant compatibility of test substances in the case of crop plants, the following options are used for applying the safener: • seeds of the crop plants are, before sowing, dressed with safener substance (the amount of safener stated in percent, based on the weight of the seed) • before the application of the test substances, the crop plants are sprayed with the safener at a certain application rate per hectare (usually 1 day before the application of the test substances) • the safener is applied together with the test substance as a tank mix (the amount of safener is stated in g/ha or as a ratio, based on the herbicide).
(§4) By comparing the effect of test substances on crop plants without or with safener treatment, it is possible to assess the effect of the safener substance.
(§5) Container trials in the greenhouse, treatment with safener 1 day prior to herbicide application

Summer barley = experiment: as above; format: in vivo; conditions: no safener
Experimental: as §1, §2, §3, §4, §5

[1] = test system: cotton aphid (Aphis gossypii); experiment: Example N: Aphis gossypii test, with ammonium/phosphonium salts and penetrants; format: in vivo; conditions: 20 ppm
Experimental: (§6) Solvent: 7 parts by weight of dimethylformamide
(§7) Emulsifier: 2 parts by weight of alkylaryl polyglycol ether
(§8) To produce a suitable preparation of active compound, 1 part by weight of active compound is mixed with the stated amounts of solvent and emulsifier and the concentrate is diluted with emulsifier-containing water to the desired concentration. For the application with penetrants (rapeseed oil methyl ester 500 EW), ammonium or phosphonium salts or ammonium salts and penetrants (rapeseed oil methyl ester 500 EW), these are in each case added in a concentration of 1000 ppm to the spray liquor.
Cotton plants (Gossypium hirsutum) which are heavily infested by the cotton aphid (Aphis gossypii) are treated by being sprayed to run off point with the preparation of active compound at the desired concentration.
After the desired period of time, the kill in % is determined. 100% means that all aphids have been killed; 0% means that none of the aphids have been killed.
(§9) In this test, for example, the following compounds of the Preparation Examples show good efficacy: see table

[2] = test system: green peach aphid (Myzus persicae); experiment: Example M: Myzus persicae test, activity increase by ammonium/phosphonium salts in combination with penetrants; format: in vivo; conditions: for Kill (%) after 6 d +AS 1000 ppm: + ammonium sulphate 1000 ppm; for Kill (%) after 6 d +RME 1000 ppm: + rapeseed oil methyl ester 1000 ppm; for Kill (%) after 6 d: no additive
Experimental: Activity Increase by Ammonia/Phosphonium Salts in Combination with Penetrants
as §6, §7, §8
Paprika plants (Capsicum annuum) which are heavily infested by the green peach aphid (Myzus persicae) are treated by being sprayed to run off point with the preparation of active compound at the desired concentration.
After the desired period of time, the kill in % is determined. 100% means that all animals have been killed; 0% means that none of the animals have been killed.
as §9

[3] = logP determination by HPLC on a reverse-phase column (C 18), EEC Directive 79/831 Annex V.A8; format: physicochemical; conditions: HPLC reverse-phase C 18, 43° C., acidic range (pH 2.3), 0.1% aqueous phosphoric acid/acetonitrile; for chromatographic logP: reverse-phase HPLC column (C 18)
Experimental: The logP values given in the table were determined in accordance with EEC Directive 79/831 Annex V.A8 by HPLC (High Performance Liquid Chromatography) on a reverse-phase column (C 18). Temperature: 43° C.
Mobile phases for the determination in the acidic range (pH 2.3): 0.1% aqueous phosphoric acid, acetonitrile; linear gradient from 10% acetonitrile to 90% acetonitrile.
Calibration was carried out using unbranched alkan-2-ones (having 3 to 16 carbon atoms) with known logP values (determination of the logP values by retention times using linear interpolation between two successive alkanones).

[4] = test system: green peach aphid (Myzus persicae); experiment: Example G: Myzus persicae test, hydroponic treatment (MYZUPE sys.); format: in vivo; conditions: concentration 20 ppm, pea plant
Experimental: Myzus persicae Test, Hydroponic Treatment (MYZUPE sys.)
as §6, §7
To produce a suitable preparation of active compound, 1 part by weight of active compound is mixed with the stated amounts of solvent and emulsifier, and the concentrate is diluted with water to the desired concentration.
The preparation of active compound is mixed with water. The stated concentration refers to the amount of active compound per volume unit of water (mg/l=ppm). The treated water is filled into vessels containing a pea plant (Pisum sativum) which is then infested with the green peach aphid (Myzus persicae).
After the desired period of time, the kill in percent is determined. 100% means that all aphids have been killed; 0% means that none of the aphids have been killed.

[5] = Source text: Use was made of leaves which, fully developed, were cut from apple trees of the cultivar golden delicious.
Only the cuticles, free from hairs and stoma, of the upper sides of the leaves were then used. They were washed repeatedly alternating with water and a buffer solution of pH 7. The clean cuticles obtained were then mounted on Teflon plates and smoothed and dried with a gentle stream of air.
In the next step, the cuticle membranes obtained in this manner were placed into stainless steel diffusion cells (=transport chambers) for membrane transport studies. […] The arrangement was chosen such that the morphological outside of the cuticles was facing outwards, i.e. exposed to air, whereas the original inside was facing the interior of the diffusion cells.
The diffusion cells were filled with a 30% strength ethylene glycol/water solution. To determine the penetration, in each case 10 μl of the spray liquor of the composition below were applied to the outside of the cuticles. The spray liquor was prepared using local tap water of medium hardness.
After the spray liquors had been applied, the water was allowed to evaporate and the chambers were inverted and placed into thermostated taps in which temperature and atmospheric humidity over the cuticles could be adjusted using a gentle stream of air onto the cuticles with the spray coating (20° C., 60% rh).

Setaria viridis = experiment: Example B: Herbicidal post-emergence action; format: in vivo; conditions: application rate 320 g/ha, rated after about 3 weeks
Experimental: as §1
(§10) Seeds of monocotylos and dicotylos weed and crop plants are placed in sandy lawn in wood fibre pots, covered with soil and cultivated in a greenhouse under good growth conditions. Two to three weeks after sowing, the test plants are treated at the one-leaf stage. The test compounds, formulated as wettable powders (WP) or as emulsion concentrates (EC), are then, as an aqueous suspension with a water application rate of 800 l/ha (converted), with 0.2% of wetting agent added, sprayed onto the green parts of the plants. After the test plants have been kept in the greenhouse under optimum growth conditions for about 3 weeks, the effect of the preparations is rated visually in comparison to untreated controls (herbicidal effect in percent (%): 100% effect=the plants have died, 0% effect=like control plants).

Lolium multiflorum = experiment: Example B: Herbicidal post-emergence action; format: in vivo; conditions: application rate 320 g/ha, rated after about 3 weeks
Experimental: as §1, §10

[6] = 10 days after application, 12.5 g of a.i./ha
[7] = 10 days after application, 25 g of a.i./ha
[8] = 10 days after application, 50 g of a.i./ha

COC1CCC2(CC1)NC(=O)C(c1c(C)cc(C)cc1C1CC1)=C2O (stereo not drawn) [Example I-1-a-7]
Summer wheat observed (%) (Summer wheat; 12.5 g of a.i./ha): 30% | Summer wheat observed (%) (Summer wheat; 25 g of a.i./ha): 60% | Summer wheat observed (%) (Summer wheat; 50 g of a.i./ha): 70% | Summer wheat observed (%) (Summer wheat; 100 g of a.i./ha): 80% | Summer barley observed (%) (Summer barley; [6]): 10% | Summer barley observed (%) (Summer barley; [7]): 50% | Summer barley observed (%) (Summer barley; [8]): 60% | Kill (%) after 6 d +AS + RME in each case 1000 ppm ([1]; + AS + RME in each case 1000 ppm): 99% | Kill (%) after 6 d +AS 1000 ppm ([1]; + ammonium sulphate 1000 ppm): 65% | Kill (%) after 6 d +RME 1000 ppm ([1]; + rapeseed oil methyl ester 1000 ppm): 75% | Kill (%) after 6 d ([1]; no additive): 55%

COC1CCC2(CC1)NC(=O)C(c1c(C3CC3)cc(C)cc1C1CC1)=C2O (stereo not drawn) [Example I-1-a-15]
Kill (%) after 6 d +AS + RME in each case 1000 ppm ([2]; 4 ppm): 95% | Kill (%) after 6 d +AS 1000 ppm ([2]; 4 ppm): 15% | Kill (%) after 6 d +RME 1000 ppm ([2]; 4 ppm): 55% | Kill (%) after 6 d ([2]; 4 ppm): 5% | Kill (%) after 6 d +AS + RME in each case 1000 ppm ([2]; 20 ppm): 98% | Kill (%) after 6 d +AS 1000 ppm ([2]; 20 ppm): 95% | Kill (%) after 6 d +RME 1000 ppm ([2]; 20 ppm): 95% | Kill (%) after 6 d ([2]; 20 ppm): 95%

CCc1cc(C)cc(C2CC2)c1C1=C(O)[C@]2(CC[C@@H](OC)CC2)OC1=O [Example I-2-a-2]
chromatographic logP [3]: 3.07

COC1CCC2(CC1)NC(=O)C(c1c(C)cc(C3CC3)cc1C)=C2O (stereo not drawn) [Example I-1-a-4]
efficacy (kill of aphids) [4]: ≥ 90%

CCc1cc(C2CC2)cc(C2CC2)c1C1=C(O)C(C)(C)NC1=O [Example I-1-a-21]
Penetration after 24 h/% a.i. + AS (1 g/l) [5]: 1.1% | Penetration after 24 h/% a.i. + RME (1 g/l) [5]: 35.6% | Penetration after 24 h/% a.i. + RME (1 g/l) + AS (1 g/l) [5]: 56.9%

COC1CCC2(CC1)OC(=O)C(c1c(C)cc(C3CC3)cc1C)=C2O (single isomer, unassigned) [Example I-2-a-3]
logP [3]: 2.64

CCc1cc(C)cc(C2CC2)c1C1=C(O)[C@]2(CC[C@H](OC)CC2)OC1=O [Example I-2-a-1]
chromatographic logP [3]: 2.81

Cc1cc(C2CC2)cc(C)c1C1=C(O)C2(CCOCC2)OC1=O [Example I-2-a-5]
logP [3]: 2.36

COC1CCC2(CC1)OC(=O)C(c1c(C)cc(C3CC3)cc1C)=C2O (single isomer, unassigned) [Example I-2-a-4]
logP [3]: 2.88

CCc1cc(C)cc(C2CC2)c1C1=C(OC(=O)C(C)(C)C)[C@]2(CC[C@H](OC)CC2)OC1=O [Example I-2-b-1]
chromatographic logP [3]: 5.03

CCc1cc(C)cc(C2CC2)c1C1=C(O)C2CCCN2C1=O (stereo not drawn) [Example I-1-a-18]
Summer wheat observed (%), 10 days after application (Summer wheat; 12.5 g of a.i./ha): 10% | Summer wheat observed (%), 10 days after application (Summer wheat; 25 g of a.i./ha): 15% | Summer wheat observed (%), 10 days after application (Summer wheat; 50 g of a.i./ha): 25% | Summer wheat observed (%), 10 days after application (Summer wheat; 100 g of a.i./ha): 40% | Summer barley observed (%) (Summer barley; [6]): 10% | Summer barley observed (%) (Summer barley; [7]): 15% | Summer barley observed (%) (Summer barley; [8]): 25% | Summer barley observed (%) (Summer barley; 10 days after application, 100 g of a.i./ha): 35% | Summer barley observed (%) (Summer barley; 28 days after application, 50 g of a.i./ha): 10% | Summer barley observed (%) (Summer barley; 28 days after application, 100 g of a.i./ha): 20%

CCOC(=O)C1(OC(=O)Cc2c(CC)cc(C)cc2C2CC2)CCC(OC)CC1 (stereo not drawn) [III-1]
chromatographic logP [3]: 5.15

CCOC(=O)OC1=C(c2c(C)cc(C3CC3)cc2CC)C(=O)NC12CCC(OC)CC2 (stereo not drawn) [Example I-1-c-1]
herbicidal effect (efficacy), post-emergence (Setaria viridis): ≥ 90% | herbicidal effect (efficacy), post-emergence (Lolium multiflorum): ≥ 90%
